Results: ChEMBL document CHEMBL3875150, “Biological evaluation of some new N-(2,6-dimethoxypyrimidinyl) thioureido benzenesulfonamide derivatives as potential antimicrobial and anticancer agents” (Eur J Med Chem, 2016)
≈ marks a conversion by molar mass, not a printed value.

Key:
Pseudomonas aeruginosa [1] = test: Antibacterial activity against Pseudomonas aeruginosa RCMB 010043 after 24 to 48 hrs by agar well diffusion method; format: functional
MCF7 [2] = test: (§1) Cytotoxicity against human MCF7 cells assessed as decrease in cell viability after 24 hrs by MTT assay; format: functional, cell-based
[3] = as §1; format: functional, cell-based; conditions: MCF7, 24 h
Pseudomonas aeruginosa [4] = test: Antibacterial activity against Pseudomonas aeruginosa RCMB 010043 assessed as diameter of inhibition zone at 1 mg/mL after 24 to 48 hrs by agar well diffusion method; format: functional; conditions: read-out: DIZ
MCF7 [5] = test: Potency index, ratio of 5-fluorouracil IC50 to test compound IC50 for human MCF7 cells; format: functional
Bacillus subtilis [6] = test: Antibacterial activity against Bacillus subtilis RCMB 010067 assessed as diameter of inhibition zone at 1 mg/mL after 24 to 48 hrs by agar well diffusion method; format: functional; conditions: read-out: DIZ
Aspergillus fumigatus [7] = test: Antifungal activity against Aspergillus fumigatus RCMB 002568 after 24 to 48 hrs by agar well diffusion method; format: functional
Streptococcus pneumoniae [8] = test: Antibacterial activity against Streptococcus pneumoniae RCMB 010010 after 24 to 48 hrs by agar well diffusion method; format: functional
Aspergillus fumigatus [9] = test: Antifungal activity against Aspergillus fumigatus RCMB 002568 assessed as diameter of inhibition zone at 1 mg/mL after 48 hrs by agar well diffusion method; format: functional; conditions: RCMB 002568, 48 h, read-out: DIZ
Bacillus subtilis [10] = test: Antibacterial activity against Bacillus subtilis RCMB 010067 after 24 to 48 hrs by agar well diffusion method; format: functional
Streptococcus pneumoniae [11] = test: Antibacterial activity against Streptococcus pneumoniae RCMB 010010 assessed as diameter of inhibition zone at 1 mg/mL after 24 to 48 hrs by agar well diffusion method; format: functional; conditions: read-out: DIZ
Escherichia coli [12] = test: Antibacterial activity against Escherichia coli RCMB 010052 assessed as diameter of inhibition zone at 1 mg/mL after 24 to 48 hrs by agar well diffusion method; format: functional; conditions: read-out: DIZ
Candida albicans [13] = test: Antifungal activity against Candida albicans RCMB 005036 assessed as diameter of inhibition zone at 1 mg/mL after 24 to 48 hrs by agar well diffusion method; format: functional; conditions: read-out: DIZ
Escherichia coli [14] = test: Antibacterial activity against Escherichia coli RCMB 010052 after 24 to 48 hrs by agar well diffusion method; format: functional
Candida albicans [15] = test: Antifungal activity against Candida albicans RCMB 005036 after 24 to 48 hrs by agar well diffusion method; format: functional

MIC (Pseudomonas aeruginosa [1]): 500 µg/mL (≈ 921 µM)
MIC (Aspergillus fumigatus [7]): 125 µg/mL (≈ 230 µM)
MIC (Streptococcus pneumoniae [8]): 15.6 µg/mL (≈ 28.8 µM)
MIC (Bacillus subtilis [10]): 7.81 µg/mL (≈ 14.4 µM)
MIC (Escherichia coli [14]): 62.5 µg/mL (≈ 115 µM)
MIC (Candida albicans [15]): 125 µg/mL (≈ 230 µM)
SMILES: COc1cc(NS(=O)(=O)c2ccc(NC(=S)NC3CCN(Cc4ccccc4)CC3)cc2)nc(OC)n1
Activity (MCF7 [2]): Dose-dependent effect
IC50 [3]: 1.72 µg/mL (≈ 3.17 µM)
zone of inhibition at 1000 µg/mL (Pseudomonas aeruginosa [4]): 8.2 mm
Ratio IC50 (MCF7 [5]): 3
zone of inhibition at 1000 µg/mL (Bacillus subtilis [6]): 18.4 mm
zone of inhibition at 1000 µg/mL (Aspergillus fumigatus [9]): 14.2 mm
zone of inhibition at 1000 µg/mL (Streptococcus pneumoniae [11]): 17.3 mm
zone of inhibition at 1000 µg/mL (Escherichia coli [12]): 16.3 mm
zone of inhibition at 1000 µg/mL (Candida albicans [13]): 12.7 mm
